This passage reports MIC results from patent US20260049092A1, “ANTIBACTERIAL COMPOUNDS” (Blacksmith Medicines, Inc., priority 2022, published 2026).

Values after ≈ are worked out from the molar mass of the structure shown. Where two headings read alike, the source gives them in different places.

Holding throughout (assay): Bacterial susceptibility testing (MIC, broth microdilution)
Format in all cases: cell-based

One assay has as its system E. coli ATCC25922. The note with it: Escherichia coli. A digest of the protocol: (§1)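 CLSI broth microdilution was run in cation-adjusted Mueller-Hinton broth with an inoculum of 3×10^5–7×10^5 CFU/mL and 2-fold compound dilutions. Plates were incubated in ambient air at 35° C for 18-24 h. MIC was the lowest concentration preventing visible growth (OD600 nm<0.05).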
For a further assay, the system named is K. pneumoniae ATCC13883. The note with it: Klebsiella pneumoniae. A digest of the protocol:
as §1

A further assay relates to P. aeruginosa ATCC27853. The note with it: Pseudomonas aeruginosa. In short, it runs like this:
as §1

The subject of another assay is P. aeruginosa PAO1. The note with it: Pseudomonas aeruginosa. In short, it runs like this: as §1
Where [1] appears, read: ATCC25922, read-out: E. coli ATCC25922 MIC.
Setting [2] is: ATCC13883, read-out: K. pneumoniae ATCC13883 MIC.
[3] abbreviates: ATCC27853, read-out: P. aeruginosa ATCC27853 MIC.
Setting [4] is: PAO1, read-out: P. aeruginosa PAO1 MIC.
Where [5] appears, read: ATCC25922, broth microdilution, cation adjusted Mueller-Hinton Broth, 35° C., 18-24 h, read-out: E. coli ATCC25922 MIC.
The mark [6] stands for this setting: ATCC13883, broth microdilution, cation adjusted Mueller-Hinton Broth, 35° C., 18-24 h, read-out: K. pneumoniae ATCC13883 MIC.
[7] abbreviates: ATCC27853, broth microdilution, cation adjusted Mueller-Hinton Broth, 35° C., 18-24 h, read-out: P. aeruginosa ATCC27853 MIC.
[8] abbreviates: PAO1, broth microdilution, cation adjusted Mueller-Hinton Broth, 35° C., 18-24 h, read-out: P. aeruginosa PAO1 MIC.

On to `C[C@H](O)c1nccn1[C@@H](C#Cc1ccc(-c2ccc(OC3CN(CCC#N)C3)cc2)cc1)CO` [Compound 93, 3-(3-((4′-((S)-4-hydroxy-3-(2-((S)-1-hydroxyethyl)-1H-imidazol-1-yl)but-1-yn-1-yl)-[1,1′-biphenyl]-4-yl)oxy)azetidin-1-yl)propanenitrile], for which the MIC stood at 0.5 µg/mL (≈ 1.1 µM) in the assay on E. coli ATCC25922 (setting [1]), 1 µg/mL (≈ 2.19 µM) with K. pneumoniae ATCC13883 (setting [2]), 4 µg/mL (≈ 8.76 µM) in the assay with P. aeruginosa ATCC27853 (setting [3]) and 2 µg/mL (≈ 4.38 µM) in the assay with P. aeruginosa PAO1 (setting [4]).
With `C[C@H](O)c1nccn1[C@@H](C#Cc1ccc(-c2ccc(OC3CN(C(N)=O)C3)cc2)cc1)CO` [Compound 94, 3-((4′-((S)-4-hydroxy-3-(2-((S)-1-hydroxyethyl)-1H-imidazol-1-yl)but-1-yn-1-yl)-[1,1′-biphenyl]-4-yl)oxy)azetidine-1-carboxamide], the MIC with E. coli ATCC25922 (setting [1]) was 1 µg/mL (≈ 2.24 µM); with K. pneumoniae ATCC13883 (setting [2]), 4 µg/mL (≈ 8.96 µM); in the assay on P. aeruginosa ATCC27853 (setting [3]), 2 µg/mL (≈ 4.48 µM); with P. aeruginosa PAO1 (setting [4]), 2 µg/mL (≈ 4.48 µM).
On to `C[C@H](O)c1nccn1[C@@H](C#Cc1ccc(-c2ccc(OC3CN(C(=O)N(C)C)C3)cc2)cc1)CO` [Compound 95, 3-((4′-((S)-4-hydroxy-3-(2-((S)-1-hydroxyethyl)-1H-imidazol-1-yl)but-1-yn-1-yl)-[1,1′-biphenyl]-4-yl)oxy)-N,N-dimethylazetidine-1-carboxamide], for which the MIC was 0.5 µg/mL (≈ 1.05 µM) in the assay on E. coli ATCC25922 (setting [1]), 2 µg/mL (≈ 4.21 µM) with K. pneumoniae ATCC13883 (setting [2]), 4 µg/mL (≈ 8.43 µM) in the assay with P. aeruginosa ATCC27853 (setting [3]) and 2 µg/mL (≈ 4.21 µM) in the assay on P. aeruginosa PAO1 (setting [4]).
`C[C@H](O)c1nccn1[C@@H](C#Cc1ccc(-c2ccc(OC3CN(C(=O)N4CCOCC4)C3)cc2)cc1)CO` [Compound 96, (3-((4′-((S)-4-hydroxy-3-(2-((S)-1-hydroxyethyl)-1H-imidazol-1-yl)but-1-yn-1-yl)-[1,1′-biphenyl]-4-yl)oxy)azetidin-1-yl)(morpholino)methanone]: the MIC in the assay on E. coli ATCC25922 (setting [1]) came out at 2 µg/mL (≈ 3.87 µM); in the assay with K. pneumoniae ATCC13883 (setting [2]), 8 µg/mL (≈ 15.5 µM); in the assay on P. aeruginosa ATCC27853 (setting [3]), 8 µg/mL (≈ 15.5 µM); in the assay with P. aeruginosa PAO1 (setting [4]) it was 8 µg/mL (≈ 15.5 µM).
Consider `C[C@H](O)c1nccn1[C@@H](C#Cc1ccc(-c2ccc(OC3CN(c4nccn4C)C3)cc2)cc1)CO` [Compound 98, (S)-2-(2-((S)-1-hydroxyethyl)-1H-imidazol-1-yl)-4-(4′-((1-(1-methyl-1H-imidazol-2-yl)azetidin-3-yl)oxy)-[1,1′-biphenyl]-4-yl)but-3-yn-1-ol], for which the MIC turned out to be 0.5 µg/mL (≈ 1.03 µM) in the assay with E. coli ATCC25922 (setting [1]), 2 µg/mL (≈ 4.14 µM) with K. pneumoniae ATCC13883 (setting [2]), 8 µg/mL (≈ 16.5 µM) in the assay with P. aeruginosa ATCC27853 (setting [3]) and 4 µg/mL (≈ 8.27 µM) in the assay on P. aeruginosa PAO1 (setting [4]).
As to `C[C@H](O)c1nccn1[C@@H](C#Cc1ccc(-c2ccc(N3CCC3)cc2)cc1)CO` [Compound 108, (S)-4-(4′-(azetidin-1-yl)-[1,1′-biphenyl]-4-yl)-2-(2-((S)-1-hydroxyethyl)-1H-imidazol-1-yl)but-3-yn-1-ol], the minimal inhibitory concentration (MIC) was 0.38 µg/mL (≈ 0.981 µM) with E. coli ATCC25922 (setting [5]), over 32 µg/mL in the assay on K. pneumoniae ATCC13883 (setting [6]), over 32 µg/mL in the assay on P. aeruginosa ATCC27853 (setting [7]) and over 32 µg/mL in the assay with P. aeruginosa PAO1 (setting [8]).
Turning to `COC1CN(c2ccc(-c3ccc(C#C[C@@H](CO)n4ccnc4[C@H](C)O)cc3)cc2)C1` [Compound 110, (S)-2-(2-((S)-1-hydroxyethyl)-1H-imidazol-1-yl)-4-(4′-(3-methoxyazetidin-1-yl)-[1,1′-biphenyl]-4-yl)but-3-yn-1-ol], the MIC in the assay on E. coli ATCC25922 (setting [5]) is 0.38 µg/mL (≈ 0.91 µM); in the assay on K. pneumoniae ATCC13883 (setting [6]), 1.2 µg/mL (≈ 2.87 µM); in the assay with P. aeruginosa ATCC27853 (setting [7]), over 32 µg/mL; with P. aeruginosa PAO1 (setting [8]), over 32 µg/mL.
Regarding `C[C@H](O)c1nccn1[C@@H](C#Cc1ccc(-c2ccc(C3CC(C)(O)C3)cc2)cc1)CO` (stereo partly drawn) [Compound 111, 3-(4′-((S)-4-hydroxy-3-(2-((S)-1-hydroxyethyl)-1H-imidazol-1-yl)but-1-yn-1-yl)-[1,1′-biphenyl]-4-yl)-1-methylcyclobutan-1-ol], the MIC with E. coli ATCC25922 (setting [5]) came out at 0.25 µg/mL (≈ 0.6 µM); with K. pneumoniae ATCC13883 (setting [6]), 0.5 µg/mL (≈ 1.2 µM); in the assay on P. aeruginosa ATCC27853 (setting [7]), 2 µg/mL (≈ 4.8 µM); in the assay on P. aeruginosa PAO1 (setting [8]), 1.5 µg/mL (≈ 3.6 µM).
On to `C[C@H](O)c1nccn1[C@@H](C#Cc1ccc(-c2ccn(C)c(=O)c2)cc1)CO` [Compound 112, 4-(4-((S)-4-hydroxy-3-(2-((S)-1-hydroxyethyl)-1H-imidazol-1-yl)but-1-yn-1-yl)phenyl)-1-methylpyridin-2(1H)-one], for which the MIC in the assay on E. coli ATCC25922 (setting [5]), in the assay with K. pneumoniae ATCC13883 (setting [6]), in the assay with P. aeruginosa ATCC27853 (setting [7]) and in the assay with P. aeruginosa PAO1 (setting [8]) was over 32 µg/mL in each case.
Turning to `C[C@H](O)c1nccn1[C@@H](C#Cc1ccc(-c2ccc(C3COC3)cc2)cc1)CO` [Compound 128, (S)-2-(2-((S)-1-hydroxyethyl)-1H-imidazol-1-yl)-4-(4′-(oxetan-3-yl)-[1,1′-biphenyl]-4-yl)but-3-yn-1-ol], the MIC with E. coli ATCC25922 (setting [5]) amounted to 0.25 µg/mL (≈ 0.644 µM); with K. pneumoniae ATCC13883 (setting [6]), 1 µg/mL (≈ 2.57 µM); with P. aeruginosa ATCC27853 (setting [7]), 4 µg/mL (≈ 10.3 µM); with P. aeruginosa PAO1 (setting [8]), 2 µg/mL (≈ 5.15 µM).
Consider `C[C@H](O)c1nccn1[C@@H](C#Cc1ccc(-c2ccc(OC3(C)COC3)cc2)cc1)CO` [Compound 136, (S)-2-(2-((S)-1-hydroxyethyl)-1H-imidazol-1-yl)-4-(4′-((3-methyloxetan-3-yl)oxy)-[1,1′-biphenyl]-4-yl)but-3-yn-1-ol], for which the MIC came to 0.25 µg/mL (≈ 0.597 µM) in the assay on E. coli ATCC25922 (setting [5]), 0.5 µg/mL (≈ 1.19 µM) in the assay with K. pneumoniae ATCC13883 (setting [6]), 4 µg/mL (≈ 9.56 µM) in the assay on P. aeruginosa ATCC27853 (setting [7]) and 2 µg/mL (≈ 4.78 µM) in the assay with P. aeruginosa PAO1 (setting [8]).
For `C[C@H](O)c1nccn1[C@@H](C#Cc1ccc(-c2ccc([C@@H](C)O)cc2)cc1)CO` [Compound 138, (S)-2-(2-((S)-1-hydroxyethyl)-1H-imidazol-1-yl)-4-(4′-((R)-1-hydroxyethyl)-[1,1′-biphenyl]-4-yl)but-3-yn-1-ol], the MIC was 1 µg/mL (≈ 2.66 µM) in the assay with E. coli ATCC25922 (setting [5]), 2 µg/mL (≈ 5.31 µM) in the assay on K. pneumoniae ATCC13883 (setting [6]), 16 µg/mL (≈ 42.5 µM) with P. aeruginosa ATCC27853 (setting [7]) and 4 µg/mL (≈ 10.6 µM) with P. aeruginosa PAO1 (setting [8]).
In the case of `CC(=O)N1CC(c2ccc(-c3ccc(C#C[C@@H](CO)n4ccnc4[C@H](C)O)cc3)cc2)C1` [Compound 139, 1-(3-(4′-((S)-4-hydroxy-3-(2-((S)-1-hydroxyethyl)-1H-imidazol-1-yl)but-1-yn-1-yl)-[1,1′-biphenyl]-4-yl)azetidin-1-yl)ethan-1-one], the MIC turned out to be 0.5 µg/mL (≈ 1.16 µM) in the assay with E. coli ATCC25922 (setting [5]), 1 µg/mL (≈ 2.33 µM) in the assay on K. pneumoniae ATCC13883 (setting [6]), 4 µg/mL (≈ 9.31 µM) with P. aeruginosa ATCC27853 (setting [7]) and 1 µg/mL (≈ 2.33 µM) in the assay on P. aeruginosa PAO1 (setting [8]).
With `C[C@H](O)c1nccn1[C@@H](C#Cc1ccc(-c2ccc(C3CN(CCC#N)C3)cc2)cc1)CO` [Compound 140, 3-(3-(4′-((S)-4-hydroxy-3-(2-((S)-1-hydroxyethyl)-1H-imidazol-1-yl)but-1-yn-1-yl)-[1,1′-biphenyl]-4-yl)azetidin-1-yl)propanenitrile], the MIC in the assay with E. coli ATCC25922 (setting [5]) turned out to be 0.25 µg/mL (≈ 0.567 µM); with K. pneumoniae ATCC13883 (setting [6]), 0.5 µg/mL (≈ 1.13 µM); in the assay on P. aeruginosa ATCC27853 (setting [7]), 4 µg/mL (≈ 9.08 µM); with P. aeruginosa PAO1 (setting [8]), 2 µg/mL (≈ 4.54 µM).
